Reference: paper PMC4549706, “Rational Design of Highly Potent and Slow-Binding Cytochrome bc1 Inhibitor as Fungicide by Computational Substitution Optimization” (Scientific Reports, 2015)
Where two headings read alike, the source gives them in different places.

Experiments:
[1] = molecular target: T1, bc1 complex (Sus scrofa, UniProt P24964); test: bc1 complex activity, DBH2-cytochrome c system (Assay 3); type: biochemical, porcine
T1 construct: T h e S C R f r o m p o r c i n e h e a r t; from tissue; host or cells: porcine heart
Experimental: Figure 3 Inhibitory kinetics of bc1 complex. (A) Chemical structures of AZ (azoxystrobin) and its analogues, compound 1 and compound 18. These compounds have a common pharmacophore structure: methoxyacrylate (MOA). […] Each reaction mixture contains phosphate buffered saline (PBS; 100 mM, pH 6.5), ethylenediaminetetraacetic acid (EDTA; 2 mM), lauryl maltoside (750 μM), oxidised cytochrome c (100 μM), SCR (0.05 nM), DBH2 (20–120 μM) and a specified amount of AZ (1, 0 nM; 2, 500 nM; 3, 1000 nM; 4, 2000 nM; 5, 3000 nM; and 6, 5000 nM). (C) Compound 1 is non-competitive with respect to cytochrome c. The reaction mixture contains 100 mM, pH 7.4), EDTA (0.3 mM), succinate (20 mM), SCR (0.1 nM), cytochrome c (1.13–15.6 μM), and a series of concentrations of compound 1 (1, 0 nM; 2, 10 nM; 3, 20 nM; 4, 40 nM; and 5, 60 nM). (D) Compound 1 is competitive with respect to DBH2. Each reaction mixture contains 100 mM, pH 6.5), EDTA (2 mM), lauryl maltoside (750 μM), oxidised cytochrome c (100 μM), SCR (0.05 nM), DBH2 (20–120 μM) and a specified amount of compound 1 (1, 0 nM; 2, 50 nM; 3, 100 nM; 4, 200 nM; 5, 300 nM; and 6, 500 nM).
(§1) Figure 4 Slow-binding inhibition mechanism. (A,B) Effect of various concentrations of cytochrome c and compound 18 on the inhibition of SCR activity. Each reaction mixture contains 100 mM, pH 7.4), EDTA (0.3 mM), succinate (20 mM), SCR (0.1 nM), and indicated amounts of cytochrome c and compound 18. The assays were performed in the presence of (A) 18 (35 nM) and a specified amount of cytochrome c (1, 4 μM; 2, 8 μM; 3, 20 μM; and 4, 48 μM) or (B) cytochrome c (60 μM) and various concentrations of compound 18 (1, 0 nM; 2, 15 nM; 3, 20 nM; 4, 30 nM; 5, 40 nM; and 6, 50 nM). Experimental data are shown as coloured dots and theoretical values are represented as black solid lines. Insets: plots of Kobs against concentration of (A) cytochrome c and (B) compound 18. […] Each reaction mixture contains 100 mM, pH 6.5), EDTA (2 mM), lauryl maltoside (750 μM), oxidised cytochrome c (100 μM), SCR (0.05 nM), and indicated amounts of DBH2 and compound 18. Two representative sets of inhibitory assays were performed in the presence of (C) DBH2 (20 μM) and a specified amount of compound 18 (1, 20 nM; 2, 40 nM; 3, 60 nM; 4, 80 nM), or (D) DBH2 (120 μM) and a specified amount of compound 18 (1, 40 nM; 2, 80 nM; 3, 120 nM; 4, 180 nM). Insets: plots of Kobs against concentration of compound 18. (E) Plot of the apparent rate constant A against concentration of DBH2. Inset: Plot of 1/A against concentration of DBH2. (F) Plot of the apparent rate constant B against concentration of DBH2.
(§2) The porcine succinate-cytochrome c reductase (SCR, the mixture of complex II and bc1) was prepared essentially according to the previously reported method. The enzymatic activities of SCR, complex II, and bc1 complex were analyzed in respective reaction mixtures as reported previously. Kinetic analyses for the inhibition mechanism were performed as previously described. […]
(§3) inhibitory kinetics study of bc1 inhibitors 8. […]
(§4) synthesized compounds against bc1 complex were examined by SCR. As previously described 9, the combined activity of SCR can be determined by using succinate and cytochrome c as substrates (Assay 1). We also measured the activity of complex II by using succinate and 2,6-dichloroindophenol (DCIP) as substrates (Assay 2), or the activity of bc1 complex by using decylubiquinol (DBH2) and cytochrome c as substrates (Assay 3). […]
redA 10, was used to represent the enzyme concentration. The three redox reactions used in this study were summarized as follows. […]

[2] = molecular target: T2, porcine succinate-cytochrome c reductase (SCR, the mixture of complex II and bc1) (Sus scrofa, UniProt P24964); test: SCR activity, succinate-cytochrome c system (Assay 1); type: biochemical; conditions: for ∆∆Gexp: Table S1, experimental binding free energy change vs compound 1; for ΔΔGexp: experimental binding free energy change relative to compound 1
T2 construct: T h e S C R f r o m p o r c i n e h e a r t; from tissue; host or cells: porcine heart
Experimental: as §1, §2, §3, §4
redA 10, was used to represent the enzyme concentration. The three redox reactions used in this study were summarized as follows.
Assay 1: succinate + cytochrome c3+ S C R fumarate + cytochrome c2+
Assay 2: succinate + DCIP complex II fumarate + DCIPH 2
Assay 3: DBH 2 + cytochrome c3+ bc1 complex DB + cytochrome c2+
All assays were performed at 23 °C. The enzymatic activity of SCR (Assay 1) was carried out in 1.8 mL of reaction mixture containing 100 mM PBS (pH 7.4), 0.3 mM EDTA, and indicated concentrations of succinate and oxidized cytochrome c (Sigma-Aldrich). The activity of succinate-ubiquinone reductase (complex II, Assay 2) was determined in essentially the same reaction mixture, except for the replacement of cytochrome c with DCIP (Alfa Aesar). […] DBH 2 was prepared through reduction of decylubiquinone by dithionite (Sigma-Aldrich) as previously described 11,12. The nonionic detergent LM was used to decrease the interfering non-enzymatic activity though it slightly […]

[3] = system: Sphaerotheca fuliginea (Schlecht.) Poll.; test: In vivo fungus growth inhibitory rate at 200 mg/L, powdery mildew
Description: Based on the above in vitro study, compounds with nanomolar and subnanomolar Ki values were selected from the total 21 newly synthezised compounds for further studies. Pesticide likeness, defined as a complex balance of various physicochemical properties and structure features, can evaluate whether a molecule is similar to the known pesticides. After the filtration of pesticide likeness, seven compounds were kept to adhere to our previously defined rules for pesticide-likeness including molecular weight (MW) ≤ 435 Da, ClogP ≤ 6, number of H-bond acceptors (HBA) ≤ 6, number of H-bond donors (HBD) ≤ 2, number of rotatable bonds (ROB) ≤ 9, and number of aromatic bonds (ARB) ≤ 17 (Table 1)[24]. […] Therefore, compound 18 was recognized as lead compound for subsequent studies.
(§5) [a] Compounds are named as “series number-site number plus substitution group number” a: -F, b: -Cl, c:
(§6) -Br, d: -NO2, e: -CH3, f: -CF3, g: -OCH3, h: -OH, i: -NH2, j: -COOH.
(§7) [b] Substitution number and group.
(§8) [c] CH is “series 1” and N is “series 2”. […]
(§9) Table S2 Fungus growth inhibitory rate of target compounds (200 mg/L).
(§10) Comp. No. R X Sphaerotheca fuliginea Pseudoperonospora cubensis

[4] = system: Pseudoperonospora cubensis (Berk. et Curt.); test: In vivo fungus growth inhibitory rate at 200 mg/L, downy mildew
Experimental: as §5, §6, §7, §8, §9, §10

[5] = Table S1, inhibition constant with bc1 complex, read-out: Ki

T2 sequence (P24964 whole entry, one chain of several): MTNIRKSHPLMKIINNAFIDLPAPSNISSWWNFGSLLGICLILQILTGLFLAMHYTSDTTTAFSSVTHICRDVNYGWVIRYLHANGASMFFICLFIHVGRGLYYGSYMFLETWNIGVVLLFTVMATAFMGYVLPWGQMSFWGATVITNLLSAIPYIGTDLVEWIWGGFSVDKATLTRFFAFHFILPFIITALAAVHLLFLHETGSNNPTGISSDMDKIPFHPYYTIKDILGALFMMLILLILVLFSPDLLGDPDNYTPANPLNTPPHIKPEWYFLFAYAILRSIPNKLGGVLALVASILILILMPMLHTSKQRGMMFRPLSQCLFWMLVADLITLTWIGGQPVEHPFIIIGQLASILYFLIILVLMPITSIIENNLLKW
T1 sequence (P24964 whole entry, one chain of several): as above

| Structure (SMILES) | Ki [2] [nM] | ∆∆Gexp [2] [kcal/mol] | ΔΔGexp [2] [kcal/mol] | Ki [2, 5] [nM] | further results |
| --- | --- | --- | --- | --- | --- |
| CO/C=C(/C(=O)OC)c1ccccc1CSc1nc2ccccc2s1 [Compound 1, E-Methyl 2-(2-((benzo-thiazol-2-ylthio)methyl)phenyl)-3-methoxyacrylate] | 31.1 ± 0.9 | 0.00 | 0.00 | – | melting point: 84 to 86 °C; Ki [1]: 96.5 ± 5.6 nM; inhibition type with respect to DBH2 ([1]; Assay 3, varied DBH2): competitive; Ki in DBH2-cytochrome c system relative to Ki in succinate-cytochrome c system ([1]; Assay 3 vs Assay 1): approximately 3 fold; inhibition type with respect to cytochrome c ([2]; Assay 1, varied cytochrome c): non-competitive |
| CO/C=C(/C(=O)OC)c1ccccc1CSc1nc2c(F)cccc2s1 [Compound 2] | – | 0.09 | – | 35.9 ± 1.24 | – |
| CO/C=C(/C(=O)OC)c1ccccc1CSc1nc2c(Cl)cccc2s1 [Compound 3] | – | 0.47 | – | 68.5 ± 1.21 | – |
| CO/C=C(/C(=O)OC)c1ccccc1CSc1nc2cc(F)ccc2s1 [Compound 12] | 2.15 ± 0.23 | -1.58 | -1.58 | – | Fungus growth inhibitory rate, Sphaerotheca fuliginea [3]: 99%; Fungus growth inhibitory rate, Pseudoperonospora cubensis [4]: 90% |
| CO/C=C(/C(=O)OC)c1ccccc1CSc1nc2cc(Cl)ccc2s1 [Compound 13] | 0.69 ± 0.06 | -2.26 | -2.26 | – | – |
| CO/C=C(/C(=O)OC)c1ccccc1CSc1nc2cc([N+](=O)[O-])ccc2s1 [Compound 15] | 0.39 ± 0.02 | -2.60 | -2.60 | – | – |
| CO/C=C(/C(=O)OC)c1ccccc1CSc1nc2ccc(F)cc2s1 [Compound 22] | 3.97 ± 0.27 | -1.22 | -1.22 | – | – |
| CO/C=C(/C(=O)OC)c1ccccc1CSc1nc2ccc(Cl)cc2s1 [Compound 23] | 2.75 ± 0.01 | -1.44 | -1.44 | – | – |
| CO/C=C(/C(=O)OC)c1ccccc1CSc1nc2ccc(Br)cc2s1 [Compound 24] | 1.15 ± 0.4 | -1.96 | -1.96 | – | – |
| CO/C=C(/C(=O)OC)c1ccccc1CSc1nc2ccc(C)cc2s1 [Compound 26] | 1.15 ± 0.05 | -1.96 | -1.96 | – | Fungus growth inhibitory rate, Sphaerotheca fuliginea [3]: 81%; Fungus growth inhibitory rate, Pseudoperonospora cubensis [4]: 97% |
| CO/C=C(/C(=O)OC)c1ccccc1CSc1nc2ccc(C(F)(F)F)cc2s1 [Compound 27] | 0.81 ± 0.03 | -2.16 | -2.16 | – | – |
| CO/N=C(/C(=O)OC)c1ccccc1CSc1nc2c(F)cccc2s1 [Compound 42] | – | 0.97 | – | 160 ± 1.1 | – |
| CO/N=C(/C(=O)OC)c1ccccc1CSc1nc2c(Cl)cccc2s1 [Compound 43] | – | 0.77 | – | 114 ± 2.25 | – |
| CO/N=C(/C(=O)OC)c1ccccc1CSc1nc2cc(F)ccc2s1 [Compound 52] | – | -0.28 | – | 19.3 ± 1.32 | – |
| CO/N=C(/C(=O)OC)c1ccccc1CSc1nc2cc(Cl)ccc2s1 [Compound 53] | 2.84 ± 0.03 | -1.42 | -1.42 | – | – |
| CO/N=C(/C(=O)OC)c1ccccc1CSc1nc2cc([N+](=O)[O-])ccc2s1 [Compound 55] | 1.07 ± 0.12 | -2.00 | -2.00 | – | – |
| CO/N=C(/C(=O)OC)c1ccccc1CSc1nc2ccc(F)cc2s1 [Compound 62] | – | 0.55 | – | 78.3 ± 1.37 | – |
| CO/N=C(/C(=O)OC)c1ccccc1CSc1nc2ccc(Cl)cc2s1 [Compound 63] | – | -0.71 | – | 9.37 ± 1.24 | – |
| CO/N=C(/C(=O)OC)c1ccccc1CSc1nc2ccc(Br)cc2s1 [Compound 64] | 3.44 ± 0.03 | -1.31 | -1.31 | – | – |
| CO/N=C(/C(=O)OC)c1ccccc1CSc1nc2ccc([N+](=O)[O-])cc2s1 [Compound 65] | – | -0.08 | – | 27.3 ± 1.27 | – |
| CO/N=C(/C(=O)OC)c1ccccc1CSc1nc2ccc(C)cc2s1 [Compound 66] | – | -0.57 | – | 11.9 ± 1.08 | – |
